# Measurements: paper PMC4949556, “Subtle Structural Differences Trigger Inhibitory Activity of Propafenone Analogues at the Two Polyspecific ABC Transporters: P‐Glycoprotein (P‐gp) and Breast Cancer Resistance Protein (BCRP)” (Chemmedchem, 2016)
# Tests used:
# Format in all cases: cell-based
# BCRP = biological target: T1, BCRP (Homo sapiens, UniProt Q9UNQ0); assay: BCRP inhibition: steady-state mitoxantrone accumulation in BCRP-expressing PLB985 cells (flow cytometry)
# T1 construct: expressed in transfected cells; host or cells: PLB985 human myeloid leukemia cells stably expressing BCRP (gift of B. Sarkadi and K. Nemet, Budapest)
# T1 sequence (Q9UNQ0 whole entry): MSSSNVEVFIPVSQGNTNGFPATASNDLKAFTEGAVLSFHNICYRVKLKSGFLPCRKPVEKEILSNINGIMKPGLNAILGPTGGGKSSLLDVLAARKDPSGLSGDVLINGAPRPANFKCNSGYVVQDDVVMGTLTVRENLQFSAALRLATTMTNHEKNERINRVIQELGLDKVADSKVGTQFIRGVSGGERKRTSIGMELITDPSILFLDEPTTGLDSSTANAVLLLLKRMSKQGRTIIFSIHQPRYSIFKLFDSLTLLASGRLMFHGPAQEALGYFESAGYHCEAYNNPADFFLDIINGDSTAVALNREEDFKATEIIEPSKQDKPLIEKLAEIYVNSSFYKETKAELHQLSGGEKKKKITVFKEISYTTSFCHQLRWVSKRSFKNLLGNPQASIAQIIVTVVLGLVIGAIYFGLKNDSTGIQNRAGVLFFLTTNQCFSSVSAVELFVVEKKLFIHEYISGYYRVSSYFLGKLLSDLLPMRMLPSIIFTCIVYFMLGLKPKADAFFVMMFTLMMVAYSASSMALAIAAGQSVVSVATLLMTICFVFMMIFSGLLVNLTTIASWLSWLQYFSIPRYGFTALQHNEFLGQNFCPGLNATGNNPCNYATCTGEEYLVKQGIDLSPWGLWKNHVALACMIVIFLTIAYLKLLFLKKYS
# Experimental: (§1) P‐gp and BCRP inhibitory activity was assessed by implementing an intracellular accumulation assay of daunorubicin or mitoxantrone in cells overexpressing P‐gp or BCRP, respectively. In a first run, the effect of compounds 5, 6, 10, 11, and 16 (Figure 2) at 100 μM final concentration was tested (Figure 3). All compounds showing an inhibitory effect of more than 50 % compared with full inhibition by the known inhibitors of P‐gp (verapamil) and BCRP (Ko143) were further processed, and IC50 values were determined (IC50 curves and Hill coefficients are available in Figure S1 and Table S3 in the Supporting Information). […] For P‐gp, nine compounds were classified as inhibitors (5 a, 5 b, 6 a, 10 a, 10 b, 11 b, 16 a, 16 b, 16 c).
# (§2) Cell culture: The human myeloid leukemia PLB985 parental and stably expressing BCRP cell lines31 were kindly provided by B. Sarkadi (Institute of Enzymology, Research Centre for Natural Sciences, Budapest, Hungary) and K. Nemet (Creative Cell Ltd., Budapest, Hungary). Both cell lines were cultured in RPMI 1640 supplemented with 10 % FBS and 100 IU mL^−1 of penicillin and streptomycin. The human T‐lymphoblast cell line CCRF VCR1000, overexpressing P‐gp, was obtained by stepwise selection of CCRF‐CEM in vincristine‐containing medium32 and was kindly provided by V. Gekeler (Altana‐Pharma formerly Byk‐Gulden, Konstanz, Germany). CCRF VCR1000 cells were cultured in RPMI 1640 medium containing 20 % FBS and were treated regularly with vincristine (1 μg mL^−1) for about 72 h, followed by centrifugation (300 g, 5 min, RT) and resuspension in normal culture medium. All cell lines were maintained at 37 °C in an atmosphere containing 5 % CO2 with 95 % relative humidity.
# (§3) Steady‐state accumulation experiments: For BCRP and P‐gp inhibition studies, the steady‐state accumulation of mitoxantrone (7 μM) and daunorubicin (3 μM), respectively, was performed as previously described.33 Briefly, cells were harvested, pelleted (300 g, 5 min, 4 °C), diluted to a concentration of 12×10^6 cells mL^−1 in HPMI (10 mM Hepes, 120 mM NaCl, 5 mM KCl, 0.4 mM MgCl2, 0.04 mM CaCl2, 10 mM glucose, 10 mM NaHCO3, 5 mM Na2HPO4, pH 7.4 with NaOH) and kept on ice for further processing. For each data point, the cell suspension (25 μL) was preincubated for 5 min at 37 °C with 2 % DMSO (25 μL) in HPMI alone (DMSO control) or containing different concentrations of test compound solutions. Thereafter, cells were preloaded with daunorubicin (50 μL) or mitoxantrone (50 μL) for 30 or 20 min at 37 °C, respectively, to reach a final concentration of 3 or 7 μM, respectively. […] Preloading was stopped by chilling cells on ice for 5 min followed by the addition of 400 μL ice‐cold PBS. Cells were pelleted (300 g, 5 min, 4 °C), the supernatant was discarded, and the cell pellet was resuspended in ice‐cold PBS (150 μL). Until measurement, cells were kept on ice and in the dark. Immediately before cell fluorescence measurement by flow cytometry (BD Accuri C6 and BD FACSCalibur, Becton Dickinson, San Jose, CA, USA; MACSQuant, MiltenyiBiotec GmbH, BergischGladbach, Germany), 50 μL of 4′,6‐diamidin‐2‐phenylindole solution (DAPI, 4 μg mL^−1 in PBS) was added to gate out dead cells. 100 μM verapamil and 1 μM Ko143 were used as positive controls for P‐gp and BCRP inhibition, respectively. […]
# P-gp / BCRP = biological target: T2, P-gp / BCRP (Homo sapiens, UniProt Q9UNQ0); assay: as above; conditions: human, pH 7.4, probe daunorubicin (3 µM) for P-gp; mitoxantrone (7 µM) for BCRP; IC50 P-gp / IC50 BCRP; read-out: selectivity index (SI) P-gp/BCRP
# T2 construct: expressed in transfected cells; host or cells: PLB985 human myeloid leukemia cells stably expressing BCRP (gift of B. Sarkadi and K. Nemet, Budapest)
# T2 sequence (Q9UNQ0 whole entry): as above
# Experimental: as §1, §2, §3
# P-gp = biological target: T3, P-gp (Homo sapiens, UniProt P08183); assay: P-gp inhibition: steady-state daunorubicin accumulation in P-gp-overexpressing CCRF VCR1000 cells (flow cytometry)
# T3 construct: was obtained by stepwise selection of CCRF‐CEM in vincristine‐containing medium; endogenous in cells; host or cells: CCRF VCR1000 (vincristine-selected subline of CCRF-CEM human T-lymphoblasts; gift of V. Gekeler)
# T3 sequence (P08183 whole entry): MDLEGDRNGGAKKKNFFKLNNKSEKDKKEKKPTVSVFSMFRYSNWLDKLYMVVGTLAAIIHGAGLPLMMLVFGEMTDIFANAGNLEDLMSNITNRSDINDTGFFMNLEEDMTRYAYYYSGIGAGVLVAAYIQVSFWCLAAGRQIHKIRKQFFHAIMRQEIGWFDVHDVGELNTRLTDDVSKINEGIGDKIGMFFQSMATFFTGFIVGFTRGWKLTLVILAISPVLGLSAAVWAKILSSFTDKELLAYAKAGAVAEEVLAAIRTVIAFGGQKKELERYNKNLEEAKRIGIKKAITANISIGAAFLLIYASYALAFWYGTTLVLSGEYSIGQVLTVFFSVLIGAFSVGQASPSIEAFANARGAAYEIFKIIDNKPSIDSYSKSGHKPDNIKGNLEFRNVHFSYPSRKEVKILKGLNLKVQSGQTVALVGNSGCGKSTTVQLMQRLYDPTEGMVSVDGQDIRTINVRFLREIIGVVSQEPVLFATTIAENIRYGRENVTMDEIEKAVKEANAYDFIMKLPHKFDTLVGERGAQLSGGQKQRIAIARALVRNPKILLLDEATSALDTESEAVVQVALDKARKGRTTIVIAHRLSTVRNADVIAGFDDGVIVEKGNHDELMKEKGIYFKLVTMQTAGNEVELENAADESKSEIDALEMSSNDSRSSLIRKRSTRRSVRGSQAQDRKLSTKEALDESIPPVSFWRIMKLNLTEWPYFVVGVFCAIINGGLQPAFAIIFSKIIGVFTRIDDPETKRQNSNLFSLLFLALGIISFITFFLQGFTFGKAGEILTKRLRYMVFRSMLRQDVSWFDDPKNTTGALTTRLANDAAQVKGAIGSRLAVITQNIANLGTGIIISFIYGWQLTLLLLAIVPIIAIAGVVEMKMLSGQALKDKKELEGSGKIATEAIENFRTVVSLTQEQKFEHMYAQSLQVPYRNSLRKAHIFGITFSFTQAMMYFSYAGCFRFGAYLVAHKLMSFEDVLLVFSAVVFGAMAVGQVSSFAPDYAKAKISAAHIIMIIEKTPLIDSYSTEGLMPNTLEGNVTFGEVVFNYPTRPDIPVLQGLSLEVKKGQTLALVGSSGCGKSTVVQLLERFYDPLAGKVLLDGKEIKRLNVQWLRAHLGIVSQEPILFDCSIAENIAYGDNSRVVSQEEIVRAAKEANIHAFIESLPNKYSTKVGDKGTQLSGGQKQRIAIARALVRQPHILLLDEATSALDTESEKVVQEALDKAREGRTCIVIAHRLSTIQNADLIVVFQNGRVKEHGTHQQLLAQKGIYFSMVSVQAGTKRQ
# Experimental: as §1, §2, §3
# [1] = Hill coefficient of IC50 measurement, mean ± SD of n experiments
# [2] = IC50 below 10 μM considered active
smiles,measurement,setting,value
"O=C(CCc1ccccc1)c1ccccc1OCC(O)CN1CC(=O)N2CCCC2C1=O (stereo not shown) [Compound 6 a, 2‐(2‐Hydroxy‐3‐(2‐(3‐phenylpropanoyl)phenoxy)propyl)‐hexahydropyrrolo[1,2‐a]pyrazine‐1,4‐dione]",IC50,"BCRP; BCRP IC50, mitoxantrone 7 μM, PLB985 BCRP cells, mean±SD, at least n=3 (11 a n=2)",5.8 ± 1 µM
same,Hill coefficient BCRP,BCRP; [1],0.9±0.1
same,in vitro classification as BCRP inhibitor,BCRP; [2],inhibitors
same,selectivity ratio,P-gp / BCRP,0.27
same,Hill coefficient P-gp,P-gp; [1],2.6±0.4
same,in vitro classification as P-gp inhibitor,P-gp; [2],inhibitors
same,factor more active at P-gp than methoxy analogue 6 b,"P-gp; P-gp, compared with 6 b",7
same,fold more active at P-gp than analogue 11 a,"P-gp; P-gp, compared with 11 a",tenfold
same,IC50,"P-gp; daunorubicin 3 μM, CCRF VCR1000 cells, mean±SD, at least n=3",1600 ± 600 nM
same,fold higher IC50 value for BCRP than for P-gp,P-gp; ratio IC50 BCRP / IC50 P-gp,more than 2.6 fold
